Results on 52 molecules are retold here after PubChem BioAssay AID1996.

For orientation: kinetic solubility means solubility judged after dilution from a stock solution rather than from solid.

Each structure is given as a SMILES string. In brackets after ≈: the same amount, converted by molar mass. Bounds are passed on as bounds.

The conditions of this data set: buffer; pH 7.4; 200.0 µM.
In turn, `CSc1ncccc1C(=O)OCCCC(=O)c1ccc(F)cc1` gave a solubility (kinetic) of 3.8 µg/mL (≈ 11.4 µM).

Molecule `Cc1ccc(S(=O)(=O)N2CCCC(C(=O)NC3CCCC3)C2)cc1` (configuration not stated) showed a kinetic solubility of 0.5 µg/mL (≈ 1.43 µM).

Regarding `COc1cc(OC)cc(/C(N)=N/O)c1`, the kinetic solubility came out at 26.9 µg/mL (≈ 137 µM).

Turning to `Cc1cccc(-n2cc(-c3ccccc3)[nH]c2=S)c1`, the solubility (kinetic) was determined as 8.7 µg/mL (≈ 32.7 µM).

On to `COc1ccc(-n2c(=S)[nH]c3sc(-c4ccccc4)cc3c2=O)c(OC)c1`, for which the solubility (kinetic) stood at 1.7 µg/mL (≈ 4.29 µM).

`COc1ccc(CCC(C)NC2CCCCCCC2)cc1` (configuration not stated) returned a kinetic solubility of 41.8 µg/mL (≈ 144 µM).

Consider `CN=C1S/C(=C\c2cccc(Cl)c2Cl)C(=O)N1C`, for which the solubility (kinetic) is < 0.3 µg/mL.

As to `CC(=O)NO`, the solubility (kinetic) was < 0.2 µg/mL.

As for `O=C(O)CCC(=O)Nc1ccc(Br)cc1C(=O)c1ccccc1Cl`, the kinetic solubility was > 61.6 µg/mL.

For `CC(=O)c1ccc(NC(=O)Cc2ccsc2)cc1`, the solubility (kinetic) is > 38.9 µg/mL.

For the molecule `N#Cc1ccc(NC(=O)CCNC(=O)c2ccco2)cc1Cl`, the kinetic solubility amounted to 5 µg/mL (≈ 15.7 µM).

`CC12COC3(C(=O)Nc4ccccc4)CC1CCC32C` (configuration not stated): the kinetic solubility was > 40.7 µg/mL.

Consider `Cc1ccc(C)c(N2CCN(CCN3CCCCC3)CC2)c1.Cl`, for which the solubility (kinetic) came to 36.5 µg/mL.

Molecule `Cc1cccc(NCc2ccccc2)c1` had a kinetic solubility of 0.8 µg/mL (≈ 4.06 µM).

The molecule `COc1cc(CCC(=O)NCC2CCCO2)cc(OC)c1OC` (configuration not stated) registered a kinetic solubility of 44 µg/mL (≈ 136 µM).

For the molecule `CC(=O)CC(C)(C)Nc1nc2cc([N+](=O)[O-])ccc2o1`, the solubility (kinetic) was 1.1 µg/mL (≈ 3.97 µM).

Molecule `CCOC(=O)C1CCN(Cc2cccc(Oc3ccccc3)c2)CC1` came in with a solubility (kinetic) of 17 µg/mL (≈ 50.1 µM).

As for `O=S(=O)(Nc1cccc(S(=O)(=O)N2CCCCC2)c1)c1ccc(Cl)s1`, the solubility (kinetic) is > 63.1 µg/mL.

For `CC(=O)Nc1ccc(CN2CCN(C3CCCC3)C(CCO)C2)cc1` (configuration not stated), the solubility (kinetic) is > 51.8 µg/mL.

As to `COc1cc(C(C)=O)ccc1Oc1ncccn1`, the kinetic solubility was > 36.6 µg/mL.

Turning to `O=C(NC1CCSc2ccccc21)c1ccccc1Br` (configuration not stated), the solubility (kinetic) was 8.6 µg/mL (≈ 24.7 µM).

`N=C1S/C(=C\c2ccco2)C(=O)N1c1nccs1` yielded a kinetic solubility of 17.9 µg/mL (≈ 64.5 µM).

Regarding `CC(Cl)C(=O)Nc1c2c(nn1-c1ccccc1)CSC2` (configuration not stated), the solubility (kinetic) was > 46.2 µg/mL.

Molecule `CN(C)/C=C/C(=O)c1ccc2noc(-c3ccccc3)c2c1` registered a solubility (kinetic) of 15.1 µg/mL (≈ 51.7 µM).

`CCN(CC)C(=O)n1c(Cc2ccccc2)nc2ccccc21`: the kinetic solubility was > 46.1 µg/mL.

For `Cc1c(C(=O)O)oc2ccc(S(=O)(=O)N3CCCC3)cc12`, the kinetic solubility was > 46.4 µg/mL.

With `Cc1cc(C)n2cc(CSc3ccc(Cl)cc3)nc2n1`, the solubility (kinetic) is > 45.6 µg/mL.

As to `CC(NC(=O)c1ccc(N)cc1)c1ccccc1` (configuration not stated), the solubility (kinetic) was > 36 µg/mL.

In turn, `NC(=O)C1CCN(S(=O)(=O)c2ccccc2[N+](=O)[O-])CC1` returned a kinetic solubility of 39.8 µg/mL (≈ 127 µM).

With `COC(=O)c1ccc(S(=O)(=O)c2ccc([N+](=O)[O-])cc2)cc1`, the solubility (kinetic) came to 0.9 µg/mL (≈ 2.8 µM).

Take `O=C(/C=C/c1cccc(Br)c1)NCc1ccncc1`: the kinetic solubility was 37.2 µg/mL (≈ 117 µM).

In turn, `CS(=O)(=O)N1CCC(CO)(Cc2ccccc2C(F)(F)F)CC1` gave a kinetic solubility of 48.7 µg/mL (≈ 139 µM).

For `Cc1cc(=O)oc2c(C)c(OCC(=O)NCC3CCC(C(=O)O)CC3)ccc12` (configuration not stated), the kinetic solubility is > 58.1 µg/mL.

Turning to `Cc1ccc(C(=O)NC(=S)N(C)C2CCCCC2)cc1`, the solubility (kinetic) worked out at 9.9 µg/mL (≈ 34.1 µM).

Regarding `Cc1c(NC2=CC(=O)CC(C)(C)C2)c(=O)n(-c2ccccc2)n1C`, the kinetic solubility was > 48.8 µg/mL.

For `COc1cc(-c2nnc(SCC(=O)Nc3ccc(C(=O)O)cc3)o2)cc(OC)c1OC`, the kinetic solubility is > 66.8 µg/mL.

For the molecule `CC(=O)Oc1cccc(N2C(=O)C3C4C=CC(CC4)C3C2=O)c1` (configuration not stated), the solubility (kinetic) was 32.8 µg/mL (≈ 105 µM).

Molecule `CCc1noc(C)c1C(=O)OCC(=O)Nc1ccc(F)cc1Cl` showed a solubility (kinetic) of 10.8 µg/mL (≈ 31.7 µM).

As for `COc1ccc(S(=O)(=O)NCCc2ccco2)cc1OC`, the kinetic solubility is > 46.7 µg/mL.

`O=C(CNC(=O)c1ccc(Br)cc1)NCc1cccnc1` gave a solubility (kinetic) of 49.3 µg/mL (≈ 142 µM).

As to `O=C(c1ccsc1)N1CCCC(N2CCOCC2)C1` (configuration not stated), the kinetic solubility was > 42.1 µg/mL.

`Fc1ccc(NC(=S)N2CCc3ccccc32)cc1` had a solubility (kinetic) of 3.1 µg/mL (≈ 11.4 µM).

`CC1(C(=O)O)CCC(C(=O)Nc2cccc(F)c2)C1(C)C` (configuration not stated): the kinetic solubility is > 44 µg/mL.

As to `C1CCCN(C2CCNCC2)CC1.Cl`, the kinetic solubility is > 38.3 µg/mL.

In turn, `Fc1ccccc1-c1nc(NC2CCCC2)c2ccccc2n1` came in with a kinetic solubility of 11.1 µg/mL (≈ 36.1 µM).

On to `Cc1ccc(C(=O)NCC(=O)NCCCc2ccccc2)s1`, for which the kinetic solubility came out at 24.9 µg/mL (≈ 78.7 µM).

For `CCNCCNc1ccc([N+](=O)[O-])c2cccnc12`, the kinetic solubility came to 36.4 µg/mL (≈ 140 µM).

Regarding `CCOC(=O)C1CCCN(C(=O)CN2C(=O)c3ccccc3S2(=O)=O)C1` (configuration not stated), the kinetic solubility was > 57.1 µg/mL.

For `CC1CCC(NC(=O)CN(C)S(=O)(=O)c2cnc[nH]2)CC1` (configuration not stated), the kinetic solubility was > 47.2 µg/mL.

Regarding `Cc1cc(C(=O)N2CCC(C(N)=O)CC2)c(C)o1`, the kinetic solubility was > 37.5 µg/mL.

`CC(=O)NCCC(=O)Nc1nc(-c2ccc3c(c2)OCCO3)cs1` registered a kinetic solubility of 13.6 µg/mL (≈ 39.1 µM).

Regarding `O=C(Nc1cccc(NC(=O)c2ccccc2[N+](=O)[O-])c1)c1ccccc1Cl`, the solubility (kinetic) came out at 1.3 µg/mL (≈ 3.28 µM).
